# ChEMBL document CHEMBL2203139, “Synthetic bicyclic iminosugar derivatives fused thiazolidin-4-one as new potential HIV-RT inhibitors” (Bioorg Med Chem Lett, 2012)
# Target: Human immunodeficiency virus type 1 reverse transcriptase (Human immunodeficiency virus 1, UniProt Q72547)
# Experiment: Inhibition of HIV1 reverse transcriptase incubated for 1 hr by colorimetric assay
row,Structure (SMILES),IC50 [µM]
1,O=C1CS[C@H]2[C@H](O)[C@H](O)[C@H](O)CN12,13
2,O=C1CS[C@@H]2[C@H](O)[C@H](O)[C@H](O)CN12,19
3,O=C1S[C@H]2[C@H](O)[C@H](O)[C@H](O)CN2C1=O,4.22
4,O=C1C[S+]([O-])[C@H]2[C@H](O)[C@H](O)[C@H](O)CN12 (some centres not stated),10.2
5,O=C1C(O)S[C@H]2[C@H](O)[C@H](O)[C@H](O)CN12 (some centres not stated),1.74
6,O=C1S[C@@H]2[C@H](O)[C@H](O)[C@H](O)CN2C1=O,5.2
7,O=C1C[S+]([O-])[C@@H]2[C@H](O)[C@H](O)[C@H](O)CN12 (some centres not stated),2.45
